This passage reports IC50 and half-life results from US20260200942A1, “PARP7 INHIBITORS AND THEIR APPLICATIONS” (CHONGQING PHARSCIN INNOBIO CO., LTD., priority 2023, published 2026).

SMILES strings stand for the structures. Some results are limits rather than exact numbers.

One series has as its target T1, PARP7 (Homo sapiens, UniProt Q7Z3E1).
T1 construct: purchased BPS 80527
T1 sequence (Q7Z3E1 1-657): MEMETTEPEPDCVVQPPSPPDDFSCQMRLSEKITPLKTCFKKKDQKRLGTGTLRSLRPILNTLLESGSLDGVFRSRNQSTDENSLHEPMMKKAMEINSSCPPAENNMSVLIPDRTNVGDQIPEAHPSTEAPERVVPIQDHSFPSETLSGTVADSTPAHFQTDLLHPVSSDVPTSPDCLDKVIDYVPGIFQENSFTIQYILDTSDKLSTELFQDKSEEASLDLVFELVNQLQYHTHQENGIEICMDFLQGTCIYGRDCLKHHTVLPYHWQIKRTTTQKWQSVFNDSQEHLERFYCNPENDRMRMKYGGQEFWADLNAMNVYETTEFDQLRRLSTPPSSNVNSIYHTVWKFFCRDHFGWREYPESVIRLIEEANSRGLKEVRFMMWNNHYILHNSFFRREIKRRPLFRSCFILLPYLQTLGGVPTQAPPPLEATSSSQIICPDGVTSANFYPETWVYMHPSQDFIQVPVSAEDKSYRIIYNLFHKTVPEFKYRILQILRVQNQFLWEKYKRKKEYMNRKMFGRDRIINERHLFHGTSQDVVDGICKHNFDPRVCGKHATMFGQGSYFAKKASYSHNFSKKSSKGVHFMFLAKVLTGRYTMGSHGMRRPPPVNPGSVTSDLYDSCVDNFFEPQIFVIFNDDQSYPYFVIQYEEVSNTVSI
In words: PARP7 inhibitory activity assay (histone-coated 384-well plate, chemiluminescence). The series is classed as biochemical. The source says:
Inhibition rate (%) calculation formula: […]

The target in another series is T2, PARP2 (Homo sapiens, UniProt Q9UGN5).
T2 construct: purchased BPS Bioscience
In words: PARP2 inhibitory activity assay (BPS PARP2 Chemiluminescent Activity Assay Kit). In kind it is biochemical. The source says: The PARP2 enzyme activity assay method used in the present disclosure employs reagents from the PARP2 Chemiluminescent Activity Assay Kit from BPS Bioscience, USA. […] The test results are shown in Table 1. /” indicates not tested.

Series [1] can be described thus: Liver microsomal stability study, rat. The series is classed as in vitro ADME. To be noted: Rat liver microsomes. Here is the method: (§1) The above compounds were diluted to a 1.5 μM intermediate working solution with 0.1 M potassium phosphate buffer containing 0.75 mg/mL liver microsomes, and then 30 μL of the intermediate working solution was dispensed into reaction plates for different time points (0, 5, 15, 30, 45, 60 min). 150 μL of methanol solution containing internal standard was added to the 0 min plate wells. For the other time points (5, 15, 30, 45, 60 min), the sample plates were pre-incubated at 37° C. for 5 min, after which the reaction was initiated with 15 μL of 6 mM NADPH solution and timing was started. 15 μL of 6 mM NADPH solution was added to the 0 min samples to balance the system. At 5 min, 15 min, 30 min, 45 min, and 60 min, respectively, 150 μL of methanol solution containing internal standard was added to the reaction wells to terminate the reaction. After the reaction was complete, the plates were shaken on a shaker at 600 rpm for 10 min, then centrifuged at 4000 rpm for 15 min. 80 μL of supernatant from each well was transferred to a 96-well sample plate containing 150 μL of ultrapure water, mixed, and then analyzed by LC/MS to calculate T1/2.
On the technique in general: Liver microsomes are vesicles of endoplasmic reticulum, rich in cytochrome P450 enzymes.

A short description of series [2]: Liver microsomal stability study, mouse. The series is classed as in vitro ADME. The conditions noted are these: Mouse liver microsomes. Here is the method: as §1
A short description of series [3]: Liver microsomal stability study, human. In kind it is in vitro ADME. To be noted: Human liver microsomes. Here is the method:
as §1

T2 sequence (Q9UGN5 whole entry): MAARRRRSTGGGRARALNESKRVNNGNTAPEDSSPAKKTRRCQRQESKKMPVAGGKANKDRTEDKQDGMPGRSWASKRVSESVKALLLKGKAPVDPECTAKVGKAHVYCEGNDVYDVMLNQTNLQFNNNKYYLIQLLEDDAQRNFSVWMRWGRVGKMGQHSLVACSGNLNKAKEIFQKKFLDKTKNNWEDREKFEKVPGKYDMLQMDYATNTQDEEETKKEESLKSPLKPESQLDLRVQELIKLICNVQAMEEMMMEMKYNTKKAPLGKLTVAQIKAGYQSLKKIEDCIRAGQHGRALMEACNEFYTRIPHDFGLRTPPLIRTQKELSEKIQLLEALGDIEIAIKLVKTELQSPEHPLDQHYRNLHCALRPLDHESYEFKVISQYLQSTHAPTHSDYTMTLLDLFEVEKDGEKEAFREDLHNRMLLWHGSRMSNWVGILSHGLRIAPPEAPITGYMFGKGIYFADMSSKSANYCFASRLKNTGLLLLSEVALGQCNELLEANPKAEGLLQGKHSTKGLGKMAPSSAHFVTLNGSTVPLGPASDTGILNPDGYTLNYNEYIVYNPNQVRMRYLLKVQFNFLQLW

For `CC(C)(N[C@H]1C[C@H](C(=O)N2CCN(c3ncc(C(F)(F)F)cc3C(N)=O)CC2)C1)c1cc(C(F)(F)F)c(=O)[nH]n1` [Embodiment 60, 2-(4-((1R,3R)-3-((2-(6-oxo-5-(trifluoromethyl)-1,6-dihydropyridazin-3-yl)propan-2-yl)amino)cyclobutane-1-carbonyl)piperazin-1-yl)-5-(trifluoromethyl)nicotinamide], the 50% inhibitory concentration (IC50) against PARP7 is less than 10 nM; at PARP2 it was 100 to 1000 nM.
Take `O=c1[nH]cc(CN[C@H]2C[C@H](C(=O)N3C4CCC3CN(c3ncc(C(F)(F)F)cn3)C4)C2)cc1C(F)(F)F` [Embodiment 4]: the half-life at 1 µM in series [1] is more than 1 h; in series [2], more than 1 h; in series [3] it was 0.5 to 1 h. Besides, the IC50 against PARP7 was in the range of 10 to 100 nM.
Consider `NC(=O)c1cc(C(F)(F)F)cnc1N1CCN(C(=O)[C@H]2C[C@H](NCc3cc(C(F)(F)F)c(=O)[nH]n3)C2)CC1` [Embodiment 62, 2-(4-((1R,3R)-3-(((6-oxo-5-(trifluoromethyl)-1,6-dihydropyridazin-3-yl)methyl)amino)cyclobutane-1-carbonyl)piperazin-1-yl)-5-(trifluoromethyl)nicotinamide], for which the values for the half-inhibitory concentration (IC50) on PARP7 and at PARP2 were less than 10 nM and 10 to 100 nM, respectively.
In the case of `CC(C)(N[C@H]1C[C@H](C(=O)N2CCN(c3ncc(C(F)(F)F)cn3)CC2)C1)c1cc(C(F)(F)F)c(=O)[nH]n1` [Embodiment 48], the IC50 against PARP7 was less than 10 nM; at PARP2, 10 to 100 nM.
With `O=c1[nH]cc(CN[C@H]2C[C@H](C(=O)N3CCN(c4ncc(C(F)(F)F)cn4)CC3)C2)cc1C(F)(F)F` [Embodiment 13], the half-life at 1 µM in series [1] is more than 1 h; in series [2], more than 1 h; in series [3] it was 0.5 to 1 h. Besides, the IC50 on PARP7 was in the range of 10 to 100 nM.
With `CC(C)(N[C@H]1C[C@H](C(=O)N2CCN(c3ncc(C(F)(F)F)cc3C(=O)N3CCCC3)CC2)C1)c1cc(C(F)(F)F)c(=O)[nH]n1` [Embodiment 66], the concentration for half-maximal inhibition (IC50) on PARP7 lay in the range of 10 to 100 nM.
For `O=c1[nH]nc(CN[C@H]2C[C@H](C(=O)N3C4CCC3CN(c3ncc(C(F)(F)F)cn3)C4)C2)cc1C(F)(F)F` [Embodiment 3], the half-life at 1 µM in series [1], in series [2] and in series [3] was more than 1 h each time. This compound displayed an IC50 at PARP7 of 10 to 100 nM.
The compound `O=c1[nH]nc(CN[C@H]2C[C@H](C(=O)N3CCN4c5ncc(C(F)(F)F)cc5OCC[C@@H]4C3)C2)cc1C(F)(F)F` [Embodiment 38] displayed a half-maximal inhibitory concentration (IC50) on PARP7 of 10 to 100 nM.
On PARP2, `Cn1ccc2c(C(F)(F)F)cnc(N3CCN(C(=O)[C@H]4C[C@H](NC(C)(C)c5cc(C(F)(F)F)c(=O)[nH]n5)C4)CC3)c21` [Embodiment 65, 6-(2-(((1R,3R)-3-(4-(1-methyl-4-(trifluoromethyl)-1H-pyrrolo[2,3-c]pyridin-7-yl)piperazine-1-carbonyl)cyclobutyl)amino)propan-2-yl)-4-(trifluoromethyl)pyridazin-3(2H)-one] registered an IC50 of 100 to 1000 nM.
For `O=c1cc(C(F)(F)F)c(CN[C@H]2C[C@H](C(=O)N3CCN(c4ncc(C(F)(F)F)cn4)CC3)C2)n[nH]1` [Embodiment 55], the half-inhibitory concentration (IC50) on PARP7 lay within 1000 to 10000 nM.
`C[C@H]1CN(C(=O)[C@@H]2CCN(Cc3cc(C(F)(F)F)c(=O)[nH]n3)C2)CCN1c1ncc(C(F)(F)F)cn1` [Embodiment 30] yielded an IC50 on PARP7 of 10 to 100 nM.
On the same count and under the same terms, under `O=C([C@H]1CCN(Cc2c[nH]c(=O)c(C(F)(F)F)c2)C1)N1C2CCC1CN(c1ncc(C(F)(F)F)cn1)C2` [Embodiment 9, 3-(trifluoromethyl)-5-(((3S)-3-(3-(5-(trifluoromethyl)pyrimidin-2-yl)-3,8-diazabicyclo[3.2.1]octane-8-carbonyl)pyrrolidin-1-yl)methyl)pyridin-2(1H)-one] stands 1000 to 10000 nM; under `O=C(C1CN(Cc2cc(C(F)(F)F)c(=O)[nH]n2)C1)N1CCN2c3ncc(C(F)(F)F)cc3OCC[C@H]2C1` [Embodiment 40, (S)-4-(trifluoromethyl)-6-((3-(3-(trifluoromethyl)-7,7a,8,9,10,11-hexahydro-6H-pyrazino[1,2-d]pyrido[3,2-b][1,4]oxazepine-9-carbonyl)azetidin-1-yl)methyl)pyridazin-3(2H)-one], 10 to 100 nM; under `O=C(C1CN(Cc2cc(C(F)(F)F)c(=O)[nH]n2)C1)N1CCN2c3ncc(C(F)(F)F)cc3COC[C@H]2C1` [Embodiment 42, (R)-4-(trifluoromethyl)-6-((3-(3-(trifluoromethyl)-7,7a,8,9,10,11-hexahydro-5H-pyrazino[2,1-c]pyrido[2,3-e][1,4]oxazepine-9-carbonyl)azetidin-1-yl)methyl)pyridazin-3(2H)-one], 10 to 100 nM.
On the same count and under the same terms, under `O=C(C1CCN(Cc2c[nH]c(=O)c(C(F)(F)F)c2)CC1)N1CCN(c2ncc(C(F)(F)F)cn2)CC1` [Embodiment 18] stands 100 to 1000 nM.
As for `CNC(=O)c1cc(C(F)(F)F)cnc1N1CCN(C(=O)[C@H]2C[C@H](NC(C)(C)c3cc(C(F)(F)F)c(=O)[nH]n3)C2)CC1` [Embodiment 67, N-methyl-2-(4-((1R,3R)-3-((2-(6-oxo-5-(trifluoromethyl)-1,6-dihydropyridazin-3-yl)propan-2-yl)amino)cyclobutane-1-carbonyl)piperazin-1-yl)-5-(trifluoromethyl)nicotinamide], the IC50 at PARP7 was less than 10 nM; against PARP2 it was 100 to 1000 nM.
For `CC(C)(N[C@H]1C[C@H](C(=O)N2CCN(c3ncc(C(F)(F)F)c4cc[nH]c34)CC2)C1)c1cc(C(F)(F)F)c(=O)[nH]n1` [Embodiment 64, 4-(trifluoromethyl)-6-(2-(((1R,3R)-3-(4-(4-(trifluoromethyl)-1H-pyrrolo[2,3-c]pyridin-7-yl)piperazine-1-carbonyl)cyclobutyl)amino)propan-2-yl)pyridazin-3(2H)-one] the same measures were less than 10 nM and 100 to 1000 nM.
The compound `O=C([C@H]1CCCN(Cc2c[nH]c(=O)c(C(F)(F)F)c2)C1)N1CCN(c2ncc(C(F)(F)F)cn2)CC1` [Embodiment 17] displayed an IC50 against PARP7 of 100 to 1000 nM.
On to `COc1cc(C(F)(F)F)cnc1N1CCN(C(=O)C2CN(Cc3cc(C(F)(F)F)c(=O)[nH]n3)C2)CC1` [Embodiment 46, 6-((3-(4-(3-methoxy-5-(trifluoromethyl)pyridin-2-yl)piperazine-1-carbonyl)azetidin-1-yl)methyl)-4-(trifluoromethyl)pyridazin-3(2H)-one], for which the half-maximal inhibitory concentration (IC50) at PARP7 was less than 10 nM; against PARP2, 10 to 100 nM.
As to `O=C(C1CN(Cc2c[nH]c(=O)c(C(F)(F)F)c2)C1)N1CCN(c2ncc(C(F)(F)F)cn2)CC1` [Embodiment 14], the half-life at 1 µM in series [1], in series [2] and in series [3] was more than 1 h throughout. For the same compound, the IC50 against PARP7 lay within 10 to 100 nM.
On PARP7, `COc1nnc(CN(C)[C@H]2C[C@H](C(=O)N3CCN(c4ncc(C(F)(F)F)cn4)CC3)C2)cc1C(F)(F)F` [Embodiment 33, ((1R,3R)-3-(((6-methoxy-5-(trifluoromethyl)pyridazin-3-yl)methyl)(methyl)amino)cyclobutyl)(4-(5-(trifluoromethyl)pyrimidin-2-yl)piperazin-1-yl)methanone] had an IC50 of 1000 to 10000 nM.
Still for that read-out and setting: then `C[C@H]1CN(C(=O)C2CN(Cc3c[nH]c(=O)c(C(F)(F)F)c3)C2)CCN1c1ncc(C(F)(F)F)cn1` [Embodiment 26], with 10 to 100 nM.

The IC50 is the concentration that inhibits the measured activity by half. A low value points to higher potency. In general, half-life refers to the time in which the quantity being followed falls by half. A high value points to slow loss.
